Source: patent US20030138429A1, “Compositions and methods for inhibiting metastasis” (priority 2001, published 2003)

Columns and labels:
1-LN cells [1] = assay: MMP-9 activity in serum-free culture medium of 1-LN cells (quantitative gelatin zymography); assay type: cell-based, human
Method: Gelatin Zymography—Protein samples were electrophoresed on gelatin-containing 0.75 mm thick 10% polyacrylamide gels in the presence of SDS under nonreducing conditions. After completion of the electrophoretic run, the gels were incubated with two changes of 2.5% Triton X-100 for 1 h, followed by incubation for 18 h at 37° C. in 0.1 M glycine-NaOH, pH 8.3, containing 1 mM CaCl2, and […], before staining with Coomassie Brilliant Blue R-250 to visualize the lysis bands.
MMP-9 Activity in Solution—MMP-9 activity was measured in tissue culture supernatants by quantitative zymography using as a standard MMP-9 purified by affinity chromatography on gelatin-Sepharose from 1-LN cell conditioned medium (10 liters). Conditioned medium (50 μl), from 1-LN cell monolayers in 48 well culture plates (1.7×10^6 cells/well) incubated with Pg 2 glycoforms and/or inhibitors of Pg binding or activation, were electrophoresed on gelatin-containing gels and the degree of lysis was quantified using a Gelman ACD-15 Automatic Computing Densitometer (Gelman Instrument Company, Ann Arbor, Mich.). Values were determined by integrating the density of the selected bands and expressed in units×mm^2. Each gel was scanned three times and the average value of the integrated density of the bands was used to determine levels of MMP-9 from calibration curves constructed with purified active MMP-9 electrophoresed under the same conditions. The statistical analysis of the data was performed on an IBM 433 DX/S computer using the program SYSTAT® for Windows 95. The statistical significance of differences between means was evaluated by Student's t-test. MMP-9 was positively identified in conditioned medium by electrophoretic separation in 10% SDS-polyacrylamide gels (SDS-PAGE), electroblot of the electrophoresed proteins to nitrocellulose membranes and reaction with an anti-MMP-9 mAb (1 μg/ml) followed by reaction with a secondary alkaline phosphatase conjugated anti-mouse IgG. Detection was performed by reaction with the alkaline phosphatase substrate 5-bromo-4-chloro-3-indolyl phosphate in the presence of nitroblue tetrazolium (1 mM each) in 10 mM Tris-HCl, pH 8.5.
Effect of Pg on the Expression of MMP-9 by 1-LN Cells—Cells were seeded into 48-well culture plates and grown in RPMI 1640 containing 10% fetal bovine serum. Confluent monolayers were then incubated for 24 h with quiescent culture medium containing RPMI 1640 and 0.5% fetal bovine serum. Each individual Pg 2 glycoform (0.1 μM) was added in triplicate to cell monolayers in 300 μl of serum-free RPMI 1640 and incubated for 24 h at 37° C. Culture medium was collected to measure secretion of MMP-9 as described under Experimental Procedures. Prior to analyses of the MMP-9 secreted into the medium by 1-LN cells in the presence of individual Pg 2 glycoforms, we purified MMP-9 from conditioned medium (5 liters) by the technique of Masure et al.. […] A similar analysis of the Mr˜95,000 protein yielded the sequence APRQRQ, corresponding to the amino-terminal sequence of proMMP-9. […] We then proceeded to analyze the MMP-9 secreted into the medium by 1-LN cells incubated with each individual Pg 2 glycoform in serum-free culture medium, using the purified MMP-9 as a standard for quantification by gelatin zymography. These analyses (FIG. 7A) show a major band of active protein with a Mr˜85,000. […] Samples of these conditioned media were also subjected to SDS-PAGE under reducing conditions, electroblotted to nitrocellulose membranes and then reacted with an anti-MMP-9 mAb (FIG. 7B). […] A 4-fold decrease in the production of MMP-9 by cells co-incubated with anti-DPP IV mAb 236.3 and Pg 2ε (p<0.001) (Table II) is clearly observed in the conditioned medium (Lane 6 on FIGS. 8A and 8B, respectively).

[2] = tested on: 1-LN human prostate tumor cells; assay: Binding of 125I-labeled Pg 2 glycoforms to 1-LN cells; conditions: 125I-labeled glycoform 0.1 μM, increasing concentrations of inhibitor
Method: Ligand Binding Analysis—Cells were grown in tissue culture plates until the monolayers were confluent. Prior to use in binding assays, the cells were washed in HBSS. All binding assays were performed at 4° C. in RPMI 1640 containing 2% bovine serum ablumin (BSA). Increasing concentrations of ^125I-labeled Pg 2 glycoforms were incubated with cells for 60 min in 48-well or 96-well culture plates, respectively. Free ligand was separated from bound by aspirating the incubation mixture by and washing the cell monolayers rapidly three times with RPMI 1640 containing 2% BSA. The cells were then lyzed with 0.1 M NaOH, and bound radioactivity was determined in a Pharmacia LKB Biotechnology 1272-gamma counter. Molecules of ligand bound were calculated after substraction of non-specific binding measured in the presence of nonlabeled 100 μM Pg 2. Estimates for dissociation constant (Kd) values and maximal binding of Pg 2 glycoforms (Bmax) were determined by fitting data directly to the Langmuir isotherm using the statistical program SYStat® for Windows.
Binding of Single Pg 2 Glycoforms to 1-LN Human Prostate Tumor Cells—Binding of ^125I-labeled single Pg 2 glycoforms to 1-LN cells was determined as described under Experimental Procedures. Native Pg 2 has six glycoforms which differ in their sialic acid content.
In order to assess the binding mechanism of the individual Pg 2 glycoforms to 1-LN cells, we studied their activation by cells incubated with each glycoform in the presence of 6-aminohexanoic acid (6-AHA) and L-lactose. The antifibrinolytic amino acid 6-AHA prevents interaction of Pg L-lysine binding sites with several cell membrane-associated components. L-lactose is a sugar which intereferes with binding of Neu 5-AC (α2-3) or (α2-6) residues to sialic acid binding proteins and inhibits binding of Native Pg 2 to DPP IV on the surface of rheumatoid synovial fibroblasts.

1-LN cells [3] = assay: In vitro Matrigel invasion assay (modified Boyden chamber); assay type: cell-based, human; conditions: cells incubated with Pg (Pg 2ε) plus inhibitor, in words
Method: In Vitro Invasion Assay—The invasive activity in vitro was assessed by determining the ability of 1-LN cells to invade Matrigel® [47]. Polycarbonate filters (8-μm pore size; Becton Dickinson, Franklin Lakes, N.J.) were coated with Matrigel (12 μg/filter) and placed in a modified Boyden chamber. Cells (1×10^5) were added to the upper chamber in serum-free RPMI 1640 medium, or medium containing purified Pg 2 glycoforms in the absence and presence of anti-DPP IV, anti-u-PA or anti-MMP-9 IgGs, and incubated for 48 h in a humidified atmosphere. Following incubation, non-invading cells were removed from the upper chamber with a cotton swab, and filters were excised and stained with Cyto-Quik™ (Fisher Scientific, Fair Lawn, N.J.). Cells on the lower surface of the filter were enumerated using an ocular micrometer and counting a minimum of five high-powered fields. Each experiment was performed twice with triplicate samples.
Effect of Pg on 1-LN Cellular Invasion—Pg enhances the ability of prostate cancer PC-3 and DU-145 cell lines to penetrate the synthetic basement membrane Matrigel® [54]. To determine whether Pg regulates invasion via secretion of MMP-9, 1-LN cells were incubated with different inhibiting antibodies in the presence of purified Pg 2 glycoforms.

Compound	Active MMP-9 (1-LN cells [1]; SFM + additive alone, no Pg 2 glycoform, 24 h) [ng/mL]	Changes in the production of MMP-9 (1-LN cells [1]; co-incubated with 6-AHA (100 mM) and individual Pg 2 glycoforms, versus controls)	Inhibition of binding of single Pg 2 glycoforms to 1-LN cells [2]	Effect on Pg-induced Matrigel invasion by 1-LN cells (1-LN cells [3])
NCCCCCC(=O)O [Glycoform 6-AHA, 6-aminohexanoic acid, reference compound]	0.61 ± 0.14	did not show any major changes	inhibited the binding of Pg 2α and Pg 2β	–
FN peptide L1768 TSRPA: polypeptide comprising the fibronectin (FN) primary sequence L1768 TSRPA that mediates FN binding to CD26/DPP IV (FPAPDG; UniProt P02751 1768-1773, looked up, fragment)	–	–	–	inhibited Pg-induced Matrigel invasion by 1-LN cells in a dose-dependent manner
angiostatin	–	–	–	total inhibition
